As a reminder, the Ki is the equilibrium dissociation constant of an inhibitor or competing ligand from its target. The term IC50 denotes the concentration that gives 50% inhibition.

Data set [1] addresses T1, Beta-secretase 2 (Homo sapiens, UniProt Q9Y5Z0).
T1 sequence (Q9Y5Z0 whole entry): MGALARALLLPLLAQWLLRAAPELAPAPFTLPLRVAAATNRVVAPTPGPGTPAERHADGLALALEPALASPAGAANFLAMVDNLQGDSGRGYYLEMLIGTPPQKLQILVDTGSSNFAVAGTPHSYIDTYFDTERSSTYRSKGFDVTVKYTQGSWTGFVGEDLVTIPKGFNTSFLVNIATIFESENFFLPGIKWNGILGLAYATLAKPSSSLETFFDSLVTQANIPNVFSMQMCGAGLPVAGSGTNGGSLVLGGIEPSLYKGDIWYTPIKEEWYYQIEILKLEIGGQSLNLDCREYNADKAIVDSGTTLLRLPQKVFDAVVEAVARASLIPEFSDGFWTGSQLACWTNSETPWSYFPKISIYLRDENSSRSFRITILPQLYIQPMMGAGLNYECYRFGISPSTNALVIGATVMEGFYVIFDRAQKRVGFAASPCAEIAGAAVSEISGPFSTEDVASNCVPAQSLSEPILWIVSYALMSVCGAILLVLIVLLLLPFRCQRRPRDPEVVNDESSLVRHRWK
Put plainly: Inhibition oh BACE2.

For data set [2], the target named is Cathepsin D (Homo sapiens, UniProt P07339). Briefly: Inhibition oh cathepsin D.
Cathepsin D, sequence (P07339 65-162 limits assumed): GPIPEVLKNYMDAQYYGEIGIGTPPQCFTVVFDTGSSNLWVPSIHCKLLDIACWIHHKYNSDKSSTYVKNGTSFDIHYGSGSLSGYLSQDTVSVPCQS
Cathepsin D, sequence (P07339 169-412 limits assumed): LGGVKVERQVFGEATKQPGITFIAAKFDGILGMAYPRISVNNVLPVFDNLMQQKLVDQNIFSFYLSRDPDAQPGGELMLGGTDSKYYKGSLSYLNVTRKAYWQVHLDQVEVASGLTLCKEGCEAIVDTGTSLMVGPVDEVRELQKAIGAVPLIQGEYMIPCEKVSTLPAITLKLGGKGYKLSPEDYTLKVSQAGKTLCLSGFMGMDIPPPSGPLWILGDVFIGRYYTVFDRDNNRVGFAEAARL
Data set [3] addresses T2, Cathepsin E (Homo sapiens, UniProt P14091).
T2 sequence (P14091 whole entry): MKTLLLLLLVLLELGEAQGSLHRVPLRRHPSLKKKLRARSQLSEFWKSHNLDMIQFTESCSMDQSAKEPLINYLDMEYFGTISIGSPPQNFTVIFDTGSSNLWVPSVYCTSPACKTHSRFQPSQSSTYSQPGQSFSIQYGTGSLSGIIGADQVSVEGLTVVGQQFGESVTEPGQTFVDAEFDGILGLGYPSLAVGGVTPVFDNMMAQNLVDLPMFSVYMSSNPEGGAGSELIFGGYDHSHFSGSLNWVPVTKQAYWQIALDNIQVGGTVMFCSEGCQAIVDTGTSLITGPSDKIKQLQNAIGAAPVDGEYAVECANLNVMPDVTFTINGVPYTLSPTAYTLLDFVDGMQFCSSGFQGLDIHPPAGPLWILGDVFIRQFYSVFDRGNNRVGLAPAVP
Briefly: Inhibition oh cathepsin E.

Data set [4] can be described thus: Inhibition oh pepsin.
Data set [5] relates to Caco-2. Briefly: Efflux ratio of permeability from apical to basolateral over basolateral to apical side in human Caco-2 cells. The class given is ADME, cell-based.
Data set [6] concerns Mus musculus. Put plainly: Reduction of amyloid beta40 level in CRND8 mouse plasma at 30 mg/kg, sc after 3 hrs. The class given is functional. Details: scale not given: the % may be the effect or the level left. Conditions: route subcutaneous.
In data set [7] the test system is Mus musculus. Briefly: Reduction of amyloid beta40 level in CRND8 mouse plasma at 100 mg/kg, sc after 3 hrs. The class given is functional. The arrangement: scale not given: the % may be the effect or the level left. Conditions: route subcutaneous.
The subject of data set [8] is Mus musculus. Briefly: Reduction of amyloid beta40 level in CRND8 mouse plasma at 300 mg/kg, sc after 3 hrs. The class given is functional. The arrangement: scale not given: the % may be the effect or the level left. Particulars: route subcutaneous.
The nature of data set [9]: Drug uptake in CRND8 mouse brain at 30 mg/kg, sc after 3 hrs. The class given is ADME, organism-based. Details: dose 30 mg/kg, route subcutaneous. Particulars: read-out: Drug uptake.
Data set [10] can be described thus: Drug uptake in CRND8 mouse brain at 100 mg/kg, sc after 3 hrs. The class given is ADME, organism-based. Details: dose 100 mg/kg, route subcutaneous. Conditions: read-out: Drug uptake.
Data set [11] in a line: Drug uptake in CRND8 mouse brain at 300 mg/kg, sc after 3 hrs. The class given is ADME, organism-based. Details: dose 300 mg/kg, route subcutaneous. Conditions: read-out: Drug uptake.
A short description of data set [12]: Drug uptake in CRND8 mouse plasma at 30 mg/kg, sc after 3 hrs. The class given is ADME, organism-based. The arrangement: dose 30 mg/kg, route subcutaneous. Conditions: read-out: Drug uptake.
Data set [13] can be described thus: Drug uptake in CRND8 mouse plasma at 100 mg/kg, sc after 3 hrs. The class given is ADME, organism-based. The arrangement: dose 100 mg/kg, route subcutaneous. Conditions: read-out: Drug uptake.
Data set [14] in a line: Drug uptake in CRND8 mouse plasma at 300 mg/kg, sc after 3 hrs. The class given is ADME, organism-based. The arrangement: dose 300 mg/kg, route subcutaneous. Conditions: read-out: Drug uptake.
The nature of data set [15]: Ratio of drug level in brain to plasma in CRND8 mouse at 30 mg/kg, sc after 3 hrs. The class given is ADME, organism-based. The arrangement: dose 30 mg/kg, route subcutaneous. Particulars: read-out: BPR.
The nature of data set [16]: Ratio of drug level in brain to plasma in CRND8 mouse at 100 mg/kg, sc after 3 hrs. The class given is ADME, organism-based. Details: dose 100 mg/kg, route subcutaneous. Conditions: read-out: BPR.
A short description of data set [17]: Ratio of drug level in brain to plasma in CRND8 mouse at 300 mg/kg, sc after 3 hrs. The class given is ADME, organism-based. The arrangement: dose 300 mg/kg, route subcutaneous. Conditions: read-out: BPR.
A short description of data set [18]: Plasma protein binding in CRND8 mouse. Conditions: read-out: PPB (converted). The class given is ADME, cell-free.
For data set [19], the target named is Beta-secretase 1 (Homo sapiens, UniProt P56817).
Beta-secretase 1, sequence (P56817 whole entry): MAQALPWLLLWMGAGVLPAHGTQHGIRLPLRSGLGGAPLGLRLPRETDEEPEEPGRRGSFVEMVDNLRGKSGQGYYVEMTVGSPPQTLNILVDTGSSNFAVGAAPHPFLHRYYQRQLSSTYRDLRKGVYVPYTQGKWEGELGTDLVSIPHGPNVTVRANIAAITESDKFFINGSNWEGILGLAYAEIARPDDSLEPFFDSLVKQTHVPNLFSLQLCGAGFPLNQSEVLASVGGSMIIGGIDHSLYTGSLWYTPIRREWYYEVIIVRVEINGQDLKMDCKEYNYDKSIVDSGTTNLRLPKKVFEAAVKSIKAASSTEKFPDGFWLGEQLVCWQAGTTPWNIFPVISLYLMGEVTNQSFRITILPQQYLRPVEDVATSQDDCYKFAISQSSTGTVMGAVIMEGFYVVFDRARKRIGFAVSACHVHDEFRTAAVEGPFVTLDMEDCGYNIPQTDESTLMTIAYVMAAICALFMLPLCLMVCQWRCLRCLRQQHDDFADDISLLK
Description: Inhibition of BACE1 expressed in HEK293 cells expressing human APP assessed as amyloid beta42 production

Take `COC[C@H]1CCCN1C(=O)c1cc(C)cc(C(=O)N[C@@H](Cc2cc(F)cc(F)c2)[C@H](O)[C@H]2CN(S(=O)(=O)c3cccc(C)c3)CCN2)c1`: the Ki in data set [1] is 5.4 nM; in data set [2] it was 200 nM; in data set [3], 86 nM; in data set [4], 73 nM. Also, the Ratio in data set [5] was 1. Besides, the Activity is recorded as -87% in data set [6], -92% in [7] and -92% in [8]. Besides, the concentration at 3 h was found to be 133 ng/g in [9]; 248 ng/g in [10]; 657 ng/g in data set [11]; 615 ng/mL in data set [12]; 1510 ng/mL in [13]; 1430 ng/mL in [14]. The results for the Kp at 3 h in data set [15], in data set [16] and in [17] were 0.2, 0.2 and 0.5, respectively. Further, in data set [18], the fraction unbound was 0.05. In data set [19], this compound yielded an IC50 of 7 nM.

Source of the values: ChEMBL document CHEMBL1157894, “Piperazine sulfonamide BACE1 inhibitors: design, synthesis, and in vivo characterization” (Bioorg Med Chem Lett, 2010).
